{"source": "the Kinase Knowledgebase extract (Sharma et al. 2016)", "molecular_target": "EGFR (UniProt P00533)", "sequence (P00533 whole entry, looked up)": "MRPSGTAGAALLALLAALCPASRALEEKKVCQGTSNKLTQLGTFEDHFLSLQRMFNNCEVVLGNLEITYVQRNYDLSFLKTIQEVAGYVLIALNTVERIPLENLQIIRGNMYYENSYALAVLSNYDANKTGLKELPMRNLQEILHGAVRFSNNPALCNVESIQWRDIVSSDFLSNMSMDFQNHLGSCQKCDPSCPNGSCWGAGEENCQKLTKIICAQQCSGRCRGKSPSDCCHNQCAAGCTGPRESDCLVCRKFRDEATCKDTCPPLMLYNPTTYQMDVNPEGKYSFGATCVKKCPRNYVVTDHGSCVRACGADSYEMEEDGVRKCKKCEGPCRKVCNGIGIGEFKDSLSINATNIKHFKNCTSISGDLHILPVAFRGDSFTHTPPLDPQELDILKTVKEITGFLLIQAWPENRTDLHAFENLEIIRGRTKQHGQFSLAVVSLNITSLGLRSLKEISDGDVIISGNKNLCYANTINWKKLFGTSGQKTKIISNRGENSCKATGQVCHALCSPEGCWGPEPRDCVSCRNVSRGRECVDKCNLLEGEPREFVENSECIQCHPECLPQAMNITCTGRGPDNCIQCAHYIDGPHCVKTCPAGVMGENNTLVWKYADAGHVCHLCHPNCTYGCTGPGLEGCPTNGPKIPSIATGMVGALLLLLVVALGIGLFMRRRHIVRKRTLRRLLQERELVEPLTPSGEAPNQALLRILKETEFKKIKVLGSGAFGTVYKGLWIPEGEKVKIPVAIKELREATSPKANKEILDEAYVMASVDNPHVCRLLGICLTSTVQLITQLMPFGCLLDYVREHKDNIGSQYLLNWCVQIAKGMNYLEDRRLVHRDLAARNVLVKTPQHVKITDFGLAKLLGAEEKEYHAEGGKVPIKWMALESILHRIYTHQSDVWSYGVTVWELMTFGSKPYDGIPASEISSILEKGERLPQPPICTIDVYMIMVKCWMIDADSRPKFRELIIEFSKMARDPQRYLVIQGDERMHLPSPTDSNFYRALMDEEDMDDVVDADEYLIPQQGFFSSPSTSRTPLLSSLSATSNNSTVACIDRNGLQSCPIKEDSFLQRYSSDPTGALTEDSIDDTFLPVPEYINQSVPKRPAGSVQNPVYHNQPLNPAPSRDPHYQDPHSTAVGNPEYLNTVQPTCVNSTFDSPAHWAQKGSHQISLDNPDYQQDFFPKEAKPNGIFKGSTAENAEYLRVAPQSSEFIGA", "data": [{"smiles": "COc1cccc(Nc2ncnc3cc(OC)c(OC)cc23)c1", "values": [{"measurement": "IC50", "value": 50, "unit": "nM"}]}, {"smiles": "COc1cc2ncnc(Nc3cccc4ccccc34)c2cc1OC", "values": [{"measurement": "IC50", "value": 10, "unit": "nM"}]}, {"smiles": "COc1cccc(Sc2ncnc3cc(OC)c(OC)cc23)c1", "values": [{"measurement": "IC50", "value": 2000, "unit": "nM"}]}, {"smiles": "COc1cc2ncnc(Sc3cccc(Cl)c3)c2cc1OC", "values": [{"measurement": "IC50", "value": 100, "unit": "nM"}]}, {"smiles": "COc1cc2ncnc(Nc3ccccc3Cl)c2cc1OC", "values": [{"measurement": "IC50", "value": 50, "unit": "nM"}]}, {"smiles": "COc1cc2ncnc(Nc3ccc(OC(C)C)cc3)c2cc1OC", "values": [{"measurement": "IC50", "value": 5000, "unit": "nM"}]}, {"smiles": "COc1ccc2ncnc(Nc3cc(OC)c(OC)c(OC)c3)c2c1", "values": [{"measurement": "IC50", "value": 5000, "unit": "nM"}]}, {"smiles": "Clc1cccc(Nc2ncnc3ccccc23)c1", "values": [{"measurement": "IC50", "value": "50 to 100", "unit": "nM"}]}, {"smiles": "COc1cc2ncnc(Cc3ccccc3)c2cc1OC", "values": [{"measurement": "IC50", "value": "≤ 500", "unit": "nM"}]}, {"smiles": "COc1cc2ncnc(Nc3cccc(C#N)c3)c2cc1OC", "values": [{"measurement": "IC50", "value": 10000, "unit": "nM"}]}, {"smiles": "COc1cc2ncnc(NC3CCCCC3)c2cc1OC", "values": [{"measurement": "IC50", "value": "< 1000", "unit": "nM"}]}, {"smiles": "COc1cc2ncnc(Nc3cc(Cl)c(Cl)c(Cl)c3)c2cc1OC", "values": [{"measurement": "IC50", "value": 1000, "unit": "nM"}]}, {"smiles": "COc1cc2ncnc(N(C)c3ccccc3)c2cc1OC", "values": [{"measurement": "IC50", "value": 200, "unit": "nM"}]}, {"smiles": "COc1cc2ncnc(Nc3ccc4ccccc4c3)c2cc1OC", "values": [{"measurement": "IC50", "value": 50, "unit": "nM"}]}]}
